This assay has as its target T1, BChE from equine serum (Equus caballus, UniProt P81908).
T1 construct: BChE from equine serum (Sigma); purchased Sigma; host or cells: equine serum
As to the kind of experiment: biochemical. To be noted: eqBChE 0.22 U/mL, Tris-HCl pH 8.0, 20 min preincubation at 37 °C, butyrylthiocholine iodide 0.5 mM, read at 412 nm. The protocol:
Selected hits were obtained from NCI and they were provided as dry powders in variable quantities (5–10 mg). […] Subsequently, they were diluted to the required concentrations with Tris buffer pH 8.0 for the assay. Enzymatic inhibition assays were performed on BChE from equine serum (Sigma), according to the spectrophotometric Ellman's method. The experiment was performed in 48-well plates in a final volume of 100 µL. Each well contained 0.22 U/mL eqBChE dissolved in Tris–HCl buffer, pH 8.0. They were preincubated for 20 min at different compound concentrations at 37 °C. Then 0.5 mM butyrylthiocholine iodide (Sigma) and 0.35 mM 5,5′-dithiobis -2-nitrobenzoico (DTNB; Sigma) were added. Colour development was measured spectrophotometrically at 412 nm using microplate reader (BioTek ELx800) at a rate of one measurement per minute over 15 min period. […] All samples were assayed in at least duplicate measurements. In general, the amount of DMSO was kept below 1% in the assay. IC50 values were determined graphically from inhibition curves using Graph Pad prism version 6, Graph Pad Software, Inc..

Read-outs that look alike come from different tables or passages of the source.

T1 sequence (P81908 whole entry): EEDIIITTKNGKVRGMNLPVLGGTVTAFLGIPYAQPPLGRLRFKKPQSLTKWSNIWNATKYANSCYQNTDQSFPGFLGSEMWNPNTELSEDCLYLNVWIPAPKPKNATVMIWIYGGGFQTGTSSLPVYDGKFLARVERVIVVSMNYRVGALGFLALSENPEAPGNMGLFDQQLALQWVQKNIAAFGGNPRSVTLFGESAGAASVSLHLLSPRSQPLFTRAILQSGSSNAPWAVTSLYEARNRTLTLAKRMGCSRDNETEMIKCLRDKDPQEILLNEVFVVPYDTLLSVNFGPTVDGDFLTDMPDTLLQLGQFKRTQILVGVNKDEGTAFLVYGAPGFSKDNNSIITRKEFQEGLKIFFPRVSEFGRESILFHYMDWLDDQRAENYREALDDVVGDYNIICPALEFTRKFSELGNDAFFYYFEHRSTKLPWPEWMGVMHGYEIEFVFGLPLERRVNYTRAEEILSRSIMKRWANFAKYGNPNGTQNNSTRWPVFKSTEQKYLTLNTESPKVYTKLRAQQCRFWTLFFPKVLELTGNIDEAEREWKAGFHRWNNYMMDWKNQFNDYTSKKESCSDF

What is called IC50 is the concentration that gives 50% inhibition. Consider `OC(c1ccccc1)C(NCCNCc1ccccc1)c1ccccc1` (stereo not drawn) [Compound 12, 2-[2-(benzylamino)ethylamino]-1,2-diphenylethanol], for which, under “read-out: IC50 value”, the IC50 came out at 22.2 ± 0.12 µM.

As for `NCCC1CCc2[nH]c3ccccc3c2C1` (stereo not drawn) [Compound 26, 2–(2,3,4,9-tetrahydro-1H-carbazol-3-yl)ethanamine], it took 39.7 ± 0.16 µM to reach half-maximal inhibition (IC50 value) (IC50).

In the case of `O=C1CC2COc3ccc(OCCN4CCCC4)cc3C2=NN1c1ccccc1` (stereo not drawn) [Compound 4, 2-phenyl-9–(2-(pyrrolidin-1-yl)ethoxy)-4a,5-dihydro-2H-chromeno[4,3-c]pyridazin-3(4H)-one], the IC50 (read-out: IC50 value) stood at 8.3 ± 0.07 µM.

The values above are taken from paper PMC6711031, “Discovery of new butyrylcholinesterase inhibitors via structure-based virtual screening” (Journal of Enzyme Inhibition and Medicinal Chemistry, 2019).
